According to patent US20090131354A1, “miR-126 REGULATED GENES AND PATHWAYS AS TARGETS FOR THERAPEUTIC INTERVENTION” (priority 2007, published 2009):

What was measured:
Format in all cases: cell-based, human
H226 lung cancer cells = assay: Alamar Blue proliferation assay, H226
Excerpt: (§1) The inventors assessed the therapeutic effect of hsa-miR-126 for lung cancer by using 11 individual lung cancer cell lines. To measure cellular proliferation of lung cancer cells, the following non-small cell lung cancer (NSCLC) cells were used: cells derived from lung adenocarcinoma (A549, H1299, H522, H838, Calu-3, HCC827, HCC2935), cells derived from lung squamous cell carcinoma (H520, H226), cells derived from lung bronchioalveolar carcinoma (H1650), and cells derived from lung large cell carcinoma (H460). Synthetic hsa-miR-126 (Pre-miR™-hsa-miR-126, Ambion cat. no. AM17100) or negative control (NC) miRNA (Pre-miR™ microRNA Precursor Molecule-Negative Control #2; Ambion cat. no. AM17111) was delivered via lipid-based transfection into A549, H1299, H522, H838, Calu-3, HCC827, HCC2935, H520, H1650, and H460 cells, and via electroporation into H226 cells.
Lipid-based reverse transfections were carried out in triplicate according to a published protocol (Ovcharenko et al., 2005) and the following parameters: Cells (5,000-12,000 per 96 well), 0.1-0.2 μl Lipofectamine™ 2000 (cat. no. 11668-019, Invitrogen Corp., Carlsbad, Calif., USA) in 20 μl OptiMEM (Invitrogen), 30 nM final concentration of miRNA in 100 μl. […] Electroporated H226 cells were seeded at 7,000 cells per 96-well in a total volume of 100 μl. All cells except for Calu-3 cells were harvested 72 hours post transfection or electroporation for assessment of cellular proliferation. Calu-3 cells were harvested 10 days post transfection. Proliferation assays were performed using Alamar Blue (Invitrogen) following the manufacturer's instructions. As a control for inhibition of cellular proliferation, siRNA against the motor protein kinesin 11, also known as Eg5, was used. Eg5 is essential for cellular survival of most eukaryotic cells and a lack thereof leads to reduced cell proliferation and cell death (Weil et al., 2002). siEg5 was used in lipid-based transfection following the same experimental parameters that apply to miRNA. […]

Calu-3 lung cancer cells = assay: Alamar Blue proliferation assay, Calu-3
Excerpt: as §1
Electroporation of H226 cells was carried out using the BioRad Gene Pulser Xcell™ instrument (BioRad Laboratories Inc., Hercules, Calif., USA) with the following settings: 5×10^6 cells with 5 μg miRNA in 200 μl OptiMEM (1.6 μM miRNA), square wave pulse at 250 V for 5 ms. Electroporated H226 cells were seeded at 7,000 cells per 96-well in a total volume of 100 μl. All cells except for Calu-3 cells were harvested 72 hours post transfection or electroporation for assessment of cellular proliferation. Calu-3 cells were harvested 10 days post transfection. Proliferation assays were performed using Alamar Blue (Invitrogen) following the manufacturer's instructions. As a control for inhibition of cellular proliferation, siRNA against the motor protein kinesin 11, also known as Eg5, was used. Eg5 is essential for cellular survival of most eukaryotic cells and a lack thereof leads to reduced cell proliferation and cell death (Weil et al., 2002). siEg5 was used in lipid-based transfection following the same experimental parameters that apply to miRNA. The inventors also used a DNA topoisomerase II inhibitor, etoposide, at a final concentration of 10 μM and 50 μM as an internal standard for the potency of miRNAs. […]

H1299 lung cancer cells = assay: Alamar Blue proliferation assay, H1299; conditions: relative to NC miRNA (100%)
Excerpt: as §1
(§2) Lipid-based reverse transfections were carried out in triplicate according to a published protocol (Ovcharenko et al., 2005) and the following parameters: Cells (5,000-12,000 per 96 well), 0.1-0.2 μl Lipofectamine™ 2000 (cat. no. 11668-019, Invitrogen Corp., Carlsbad, Calif., USA) in 20 μl OptiMEM (Invitrogen), 30 nM final concentration of miRNA in 100 μl. Electroporation of H226 cells was carried out using the BioRad Gene Pulser Xcell™ instrument (BioRad Laboratories Inc., Hercules, Calif., USA) with the following settings: 5×10^6 cells with 5 μg miRNA in 200 μl OptiMEM (1.6 μM miRNA), square wave pulse at 250 V for 5 ms. Electroporated H226 cells were seeded at 7,000 cells per 96-well in a total volume of 100 μl. All cells except for Calu-3 cells were harvested 72 hours post transfection or electroporation for assessment of cellular proliferation. Calu-3 cells were harvested 10 days post transfection. Proliferation assays were performed using Alamar Blue (Invitrogen) following the manufacturer's instructions. As a control for inhibition of cellular proliferation, siRNA against the motor protein kinesin 11, also known as Eg5, was used. […]

H1650 lung cancer cells = assay: Alamar Blue proliferation assay, H1650
Excerpt: as §1, §2

COc1cc([C@@H]2c3cc4c(cc3[C@@H](O[C@@H]3O[C@@H]5CO[C@@H](C)O[C@H]5[C@H](O)[C@H]3O)[C@H]3COC(=O)[C@H]23)OCO4)cc(OC)c1O [etoposide]
% proliferation (H226 lung cancer cells; H226, 50 μM, relative to NC miRNA (100%)): 9.33% | % proliferation (H226 lung cancer cells; H226, relative to NC miRNA (100%)): 28.17% | % proliferation (Calu-3 lung cancer cells; Calu-3, 10 μM, relative to NC miRNA (100%)): 20.81% | % proliferation (Calu-3 lung cancer cells; Calu-3, relative to NC miRNA (100%)): 13.53% | % proliferation (H1299 lung cancer cells; H1299, 10 μM): 79.65% | % proliferation (H1299 lung cancer cells; H1299, 50 μM): 54.38% | % proliferation (H1650 lung cancer cells; H1650, 10 μM, relative to NC miRNA (100%)): 90.98% | % proliferation (H1650 lung cancer cells; H1650, relative to NC miRNA (100%)): 60.31%

hsa-miR-126 (UCGUACCGUGAGUAAUAAUGC; synthetic pre-miR form, further chemistry not given here) [Synthetic hsa-miR-126 (Pre-miR™-hsa-miR-126, Ambion cat. no. AM17100)]
% proliferation (H226 lung cancer cells; H226, 30 nM, electroporation, 72 h, relative to NC miRNA (100%)): 92.09% | % proliferation (Calu-3 lung cancer cells; Calu-3, 30 nM, 10 days, relative to NC miRNA (100%)): 65.05% | % proliferation (H1299 lung cancer cells; H1299, 30 nM, 72 h): 89.37% | % proliferation (H1650 lung cancer cells; H1650, 30 nM, 72 h, relative to NC miRNA (100%)): 80.67%
